Converted amounts (≈) assume the structure as drawn.

The text below walks through data of ChEMBL document CHEMBL4393738, “Design of hybrid molecules as antimycobacterial compounds: Synthesis of isoniazid-naphthoquinone derivatives and their activity against susceptible and resistant strains of Mycobacterium tuberculosis” (Bioorg Med Chem, 2019).

Series [1] is described as follows: Selectivity index, ratio of IC50 for mouse J774.A1 cells to MIC for Mycobacterium tuberculosis H37Rv. The settings on record: read-out: Selectivity Index. It is filed as toxicity.
Series [2] in a line: Selectivity index, ratio of IC50 for mouse J774.A1 cells to MIC for Mycobacterium tuberculosis INH R1 ATCC 35822. The class given is toxicity. The settings on record: read-out: Selectivity Index.
Series [3] is described as follows: Selectivity index, ratio of IC50 for mouse J774.A1 cells to MIC for Mycobacterium tuberculosis INH R2. It is filed as toxicity. The settings on record: read-out: Selectivity Index.
A further series concerns J774.A1. Put plainly: Cytotoxicity against mouse J774.A1 cells measured after 24 hrs by resazurin based assay. As to conditions: J774.A1, 24 h. The class given is cell-based.

As a reminder, the IC50 is the concentration needed to halve the response being measured. Regarding `CC1(C)OC2=C(CC1Br)C(=O)C(=O)c1ccccc12` (stereo not given), the selectivity ratio was 0.3 in series [1], 0.3 in series [2] and 0.6 in series [3]. The compound further came in with a half-maximal inhibitory concentration (IC50) in the series with J774.A1 of 1.93 µg/mL (≈ 6.01 µM).

As for `CC1(C)OC2=C(C(=O)C(=O)c3ccccc32)C1Nc1ccccc1` (stereo not given), the selectivity ratio in series [1] was 0.6; in series [2], 0.6; in series [3], 0.3. This compound displayed an IC50 with J774.A1 of 1.82 µg/mL (≈ 5.7 µM).

In the case of `O=C1C(=O)c2ccccc2C2=C1CC(Cn1cc(-c3ccccc3)nn1)O2` (stereo not given), the figures for the selectivity ratio in series [1], in series [2] and in series [3] were 0.2, 0.1 and 0.1, respectively. In the series on J774.A1, the IC50 was 2.94 µg/mL (≈ 8.23 µM).

`CC1CC2=C(O1)c1ccccc1/C(=N/NC(=O)c1ccncc1)C2=O` (stereo not given): the figures for the selectivity ratio in series [1], in series [2] and in series [3] were more than 16, more than 16 and more than 8, respectively. In the series on J774.A1, this compound gave a half-inhibitory concentration (IC50) of more than 200 µg/mL.

In the case of `CC1(C)OC2=C(CC1I)C(=O)C(=O)c1ccccc12` (stereo not given), the figures for the selectivity ratio in series [1], in series [2] and in series [3] were 1, 1 and 0.5, respectively. The IC50 in the series on J774.A1 was 3.2 µg/mL (≈ 8.69 µM).

In the case of `CC1(C)OC2=C(C(=O)/C(=N\NC(=O)c3ccncc3)c3ccccc32)[C@H](n2cc(-c3ccccc3)nn2)[C@H]1Br`, the selectivity ratio in series [1] was 0.9; in series [2] it was 0.9; in series [3], less than 0.9. This compound also gave a 50% inhibitory concentration (IC50) with J774.A1 of 175 µg/mL (≈ 300 µM).

Take `CC1(C)CC2=C(O1)c1ccccc1/C(=N/NC(=O)c1ccncc1)C2=O`: the selectivity ratio was more than 250 in series [1], more than 4 in series [2] and more than 32 in series [3]. The IC50 in the series on J774.A1 was more than 200 µg/mL.

Consider `CC1(C)OC2=C(CC1Br)C(=O)/C(=N\NC(=O)c1ccncc1)c1ccccc12` (stereo not given), for which the selectivity ratio in series [1], in series [2] and in series [3] was more than 16 throughout. In the series on J774.A1, this compound had a half-maximal inhibitory concentration (IC50) of more than 200 µg/mL.

In the case of `CC1(C)OC2=C(C(=O)/C(=N\NC(=O)c3ccncc3)c3ccccc32)C1n1cc(-c2ccccc2)nn1` (stereo not given), the selectivity ratio in series [1], in series [2] and in series [3] was 8.1 in each case. The same compound had a 50% inhibitory concentration (IC50) in the series with J774.A1 of 101 µg/mL (≈ 207 µM).

As for `CC1(C)OC2=C(C(=O)C(=O)c3ccccc32)C1n1cc(-c2ccccc2)nn1` (stereo not given), the figures for the selectivity ratio in series [1], in series [2] and in series [3] were 0.3, 0.1 and 0.1, respectively. Also, in the series on J774.A1, inhibition was half-maximal at 2.11 µg/mL (≈ 5.68 µM) (IC50).

For the compound `O=C1C2=C(OC(Cn3cc(-c4ccccc4)nn3)C2)c2ccccc2/C1=N/NC(=O)c1ccncc1` (stereo not given), the selectivity ratio amounted to 1.5 in series [1], 0.4 in series [2] and 0.4 in series [3]. Moreover, the midpoint of inhibition in the series on J774.A1, the IC50, lay at 18.4 µg/mL (≈ 38.6 µM).

Regarding `CC1(C)OC2=C(C(=O)/C(=N\NC(=O)c3ccncc3)c3ccccc32)C1Nc1ccccc1` (stereo not given), the selectivity ratio in series [1] came to 3; in series [2], 0.7; in series [3] it was 3. The same compound yielded an IC50 in the series with J774.A1 of 74.2 µg/mL (≈ 169 µM).

As to `CC1(C)OC2=C(C(=O)/C(=N\NC(=O)c3ccncc3)c3ccccc32)C1O` (stereo not given), the selectivity ratio in series [1] is more than 32; in series [2], more than 1; in series [3], more than 2. This compound also yielded a concentration for half-maximal inhibition (IC50) in the series on J774.A1 of more than 200 µg/mL.

On to `CC1(C)CC2=C(O1)/C(=N\NC(=O)c1ccncc1)c1ccccc1C2=O`, for which the selectivity ratio in series [1] came to 0.7; in series [2], 0.2; in series [3], 0.1. The compound also gave a half-maximal inhibitory concentration (IC50) in the series with J774.A1 of 17 µg/mL (≈ 48.9 µM).

`CC1(C)CCC2=C(O1)c1ccccc1/C(=N/NC(=O)c1ccncc1)C2=O`: the selectivity ratio in series [1] was more than 250; in series [2] it was more than 4; in series [3] it was more than 32. For the same compound, the 50% inhibitory concentration (IC50) in the series with J774.A1 was more than 200 µg/mL.

For `CC1(C)OC2=C(CC1I)C(=O)/C(=N\NC(=O)c1ccncc1)c1ccccc12` (stereo not given), the selectivity ratio in series [1], in series [2] and in series [3] was 0.3 throughout. Moreover, inhibition with J774.A1 was half-maximal at 30.8 µg/mL (≈ 63.1 µM) (IC50).

Take `CC1(C)OC2=C(C(=O)C(=O)c3ccccc32)C1O` (stereo not given): the selectivity ratio came to 0.3 in series [1], 0.1 in series [2] and 0.1 in series [3]. In the series on J774.A1, the IC50 came out at 3.67 µg/mL (≈ 15 µM).

`CC1(C)CC2=C(O1)C(=O)c1ccccc1C2=O`: the selectivity ratio in series [1] is 1.5; in series [2] it was 0.7; in series [3], 0.7. In the series with J774.A1, the midpoint of inhibition, the IC50, lay at 18.6 µg/mL (≈ 81.6 µM).

As to `CC1(C)OC2=C(C(=O)C(=O)c3ccccc32)[C@H](n2cc(-c3ccccc3)nn2)[C@H]1Br` (racemic), the selectivity ratio in series [1] came to 0.9; in series [2] it was 0.2; in series [3], 0.1. 1.47 µg/mL (≈ 3.17 µM) corresponded to half-maximal inhibition in the series on J774.A1 (IC50).

As for `CC1(C)CCC2=C(O1)C(=O)c1ccccc1C2=O` [ALPHA-LAPACHONE], the IC50 with J774.A1 was found to be 285 µg/mL (≈ 1180 µM).

Consider `CC1(C)CCC2=C(O1)c1ccccc1C(=O)C2=O` [LAPACHONE], for which the selectivity ratio was more than 32 in series [1], more than 64 in series [2] and more than 32 in series [3]. The IC50 with J774.A1 is more than 200 µg/mL.

`CC1(C)CC2=C(O1)c1ccccc1C(=O)C2=O` [NOR-BETA-LAPACHONE]: the selectivity ratio in series [1] turned out to be 1.2; in series [2] it was 0.3; in series [3] it was 0.6. Moreover, in the series on J774.A1, the IC50 came to 3.69 µg/mL (≈ 16.2 µM).
